Assay results taken from patent US5385842A, “Anthraquinones as inhibitors of sulfide production from sulfate-reducing bacteria” (E. I. Du Pont de Nemours and Company, priority 1993, dated 1995).
Structures can show the parent of a compound that is named as a salt.

The compounds below were run on Desulfovibrio desulfuricans G100A (assay: microbe, parasite or virus in culture). Conditions: not given.
Format: cell-based

Compound	inhibition of sulfide production (in words)
CC(C)NC(=N)NC(=N)Nc1cccc2c1C(=O)c1ccccc1C2=O [N-[1-(9,10-dihydro-9,10-dioxo)anthracenyl]-N'-(1-methylethyl)imidodicarbonimidic diamide hydrochloride]	inhibited sulfide formation

Same assay, conditions: Desulfovibrio desulfuricans, G100A, read-out: % Inhib. (inhibition of sulfide production)

Compound	inhibition at 10 ppm [%]	inhibition at 30 ppm [%]
CC(=O)Nc1ccc(Nc2cc(S(=O)(=O)O)c(N)c3c2C(=O)c2ccccc2C3=O)cc1 [Acid blue 40, 4-[[4-(Acetylamino)phenyl]amino]-1-amino-9,10-dihydro-9,10-dioxo-2-anthracenesulfonic acid, Na salt]	12.5	–
O=C(O)c1cc2c(cc1C(=O)O)C(=O)c1ccccc1C2=O [9,10-Dihydro-9,10-dioxo-2,3-anthracenedicarboxylic acid]	–	10
Cc1cc(O)c2c(c1)C(=O)c1c(O)ccc(O)c1C2=O [Helminthosporin, 1,5,8-Trihydroxy-3-methyl-9,10-anthracenedione]	31.3	–
NCCSc1cc(O)c2c(c1N)C(=O)c1ccccc1C2=O [1-Amino-2-(2-aminoethylthio)-4-hydroxyanthraquinone]	–	24.7
Cc1cc(O)c2c(c1)C(=O)c1cc(O[C@@H]3OC[C@](O)(CO)[C@H]3O)cc(O)c1C2=O [Frangulin B, 3-(D-apio-beta-D-Furanosyloxy)-1,8-dihydroxy-6-methyl-9,10-anthracenedione]	–	57.1
O=C1c2ccccc2C(=O)c2c1cccc2-c1cccc2c1C(=O)c1ccccc1C2=O [1,1'-Bianthraquinone, [1,1'-Bianthracene]-9,9'10,10'-tetrone]	–	12.9
Nc1cc2c(cc1O)C(=O)c1ccccc1C2=O [2-Amino-3-hydroxyanthraquinone]	–	11.4
CCCCc1ccc(Nc2ccc(Nc3ccc(CCCC)cc3S(=O)(=O)O)c3c2C(=O)c2ccccc2C3=O)c(S(=O)(=O)O)c1 [Acid green 27, 2,2'-[(9,10-Dihydro-9,10-dioxo-1,4-anthracenediyl)-diimino]bis[5-butylbenzenesulfonic acid]]	16.5	–
O=C1c2ccc(S(=O)(=O)O)cc2C(=O)c2ccc(S(=O)(=O)O)cc21 [Anthraquinone-2,6-disulfonic acid di Na salt]	9.8	–
Cc1cc2c(cc1Br)C(=O)c1ccccc1C2=O [2-Bromo-3-methylanthraquinone]	–	26
O=C(Nc1cccc2c1C(=O)c1cccc(Cl)c1C2=O)c1ccccc1 [1-Benzamido-5-chloroanthraquinone, N-(5-Chloro-9,10-dihydro-9,10-dioxo-1-anthracenyl)-benzamide]	–	10.4
Nc1c(S(=O)(=O)O)cc(Br)c2c1C(=O)c1ccccc1C2=O [1-Amino-4-bromo-9,10-dihydro-9,10-dioxo-2-anthracene-sulfonic acid, Na salt]	4.3	–
Cc1ccc2c(c1[N+](=O)[O-])C(=O)c1ccccc1C2=O [2-Methyl-1-nitroanthraquinone]	–	50
Nc1cccc2c1C(=O)c1cc(Cl)c(Cl)cc1C2=O [1-Amino-6,7-dichloroanthraquinone]	–	22.9
O=C1c2cccc(O)c2C(=O)c2cccc(O)c21 [1,5-Dihydroxyanthraquinone]	31	–
O=C1c2c(Cl)ccc(Cl)c2C(=O)c2c(Cl)ccc(Cl)c21 [1,4,5,8-Tetrachloroanthraquinone]	–	50.6
COc1ccc(N)c2c1C(=O)c1ccccc1C2=O [1-Amino-4-methoxyanthraquinone]	57.1	–
Cc1ccc(C)c2c1C(=O)c1ccccc1C2=O [1,4-Dimethylanthraquinone]	–	5.2
Nc1ccc2c(c1)C(=O)c1ccc(N)cc1C2=O [2,6-Diaminoanthraquinone]	27.2	–
Nc1c(OCCOc2ccccc2)c(OCCOc2ccccc2)c(N)c2c1C(=O)c1ccccc1C2=O [1,4-Diamino-2,3-bis(2-phenoxyethoxy)anthraquinone]	–	7.8
CN(C)Cc1ccc(Nc2ccc(N)c3c2C(=O)c2ccccc2C3=O)cc1 [Basic Blue 47, 1-Amino-4-[4-[(dimethylamino)methyl]phenyl]amino-9,10-anthracenedione]	37.2	–
CNc1ccc(Br)c2c1C(=O)c1ccccc1C2=O [1-Bromo-4-(methylamino)anthraquinone]	–	0
O=C(O)c1ccccc1Nc1cccc2c1C(=O)c1cccc(Nc3ccccc3C(=O)O)c1C2=O [Acridylic acid, 1,5-Bis(2-carboxyanilino)-9,10-anthracenedione]	33.5	–
Oc1ccc2c(O)c3ccccc3cc2c1O [Anthrarobin, 1,2,10-Anthracenetriol]	44.4	–
O=C(O)CN(CC(=O)O)Cc1cc2c(c(O)c1O)C(=O)c1ccccc1C2=O [Alizarin complexone dehydrate, (3,4-dihydroxy-2-anthraquinonyl)-methyliminodiacetic acid]	–	14.3

Compound	inhibition at 10 ppm [%]	inhibition at 30 ppm [%]
O=C1c2cccc(S(=O)(=O)O)c2C(=O)c2cccc(S(=O)(=O)O)c21 [Anthraquinone-1,5-disulfonic acid di Na salt hydrate]	17.5	–
O=C1c2ccccc2C(=O)c2c(O)c(S(=O)(=O)O)c(Oc3ccc(S(=O)(=O)O)cc3)c(O)c21 [2-Phenoxy quinizarin-3,4'-disulfonic acid, di K salt]	28.1	–
O=C(Nc1cccc2c1C(=O)c1cccc(NC(=O)c3ccccc3)c1C2=O)c1ccccc1 [1,5-Dibenzamidoanthraquinone, N,N'-(9,10-Dihydro-9,10-dioxo-1,5-anthracenediyl)-bisbenzamide]	–	0
O=C1c2ccccc2C(=O)c2c1ccc(O[C@@H]1O[C@H](CO[C@@H]3OC[C@@H](O)[C@H](O)[C@H]3O)[C@@H](O)[C@H](O)[C@H]1O)c2O [Ruberythric acid, 1-Hydroxy-2-[(6-O-β-D-xylopyranosyl-β-D-glucopyranosyl)oxy]-9,10-anthracenedione]	29.7	–
O=C1c2ccccc2C(=O)c2c(SBr)cccc21 [1-(Bromothio)anthraquinone]	–	6.5
O=C1c2ccccc2C(=O)c2c(O)c(O)cc(O)c21 [Purpurin, 1,2,4-Trihydroxyanthraquinone]	–	55.7
O=C1c2cccc(Cl)c2C(=O)c2cccc(Cl)c21 [1,5-Dichloroanthraquinone]	–	100
Nc1c(S(=O)(=O)O)cc(Nc2ccc(S(=O)(=O)O)c(Nc3nc(Cl)nc(Nc4cccc(S(=O)(=O)O)c4)n3)c2)c2c1C(=O)c1ccccc1C2=O [Reactive blue 5, 1-Amino-4[[3-[[4-chloro-6-[(3-sulfophenyl)amino]-1,3,5-triazin-2-yl]amino]-4-sulfophenyl]amino]-9,10-dihydro-9,10-dioxo-2-anthracenesulfonic acid]	0	–
O=C1c2ccccc2C(=O)c2c(Nc3ccc(S(=O)(=O)O)cc3)c(Nc3ccc(S(=O)(=O)O)cc3)cc(O)c21 [Alizarin blue black B, 1,2-Bis[(4-sulfophenyl)amino]-4-hydroxy-anthraquinone]	17.5	–
Nc1c(S(=O)(=O)O)cc(Nc2ccc(S(=O)(=O)O)c(Nc3nc(Cl)nc(Cl)n3)c2)c2c1C(=O)c1ccccc1C2=O [reactive blue 4]	7.3	–
Nc1c(S(=O)(=O)O)cc(Nc2ccccc2)c2c1C(=O)c1ccccc1C2=O [Acid blue 25, 1-Amino-9,10-dihydro-9,10-dioxo-4-(phenylamino)-2-anthracenesulfonic acid, Na salt]	26	–
O=C(Nc1ccc(Nc2ccc(NC(=O)c3ccccc3)c3c2C(=O)c2ccccc2C3=O)c2c1C(=O)c1ccccc1C2=O)c1ccccc1 [4,4'-Dibenzamido-1,1'-dianthrimide, N,N'-[Iminobis(9,10-dihydro-9,10-dioxo-4,1-anthracenediyl)]bisbenzamide]	–	5.2
Cc1ccc(Nc2ccc(Nc3ccc(C)cc3S(=O)(=O)O)c3c2C(=O)c2c(O)ccc(O)c2C3=O)c(S(=O)(=O)O)c1 [alizarine viridine, 2,2'-[(9,10-Dihydro-5,8-dihydroxy-9,10-dioxo-1,4-anthracenediyl)diimino]bis[5-methyl]benzenesulfonic acid]	–	2.6
CNc1ccc(NCCO)c2c1C(=O)c1ccccc1C2=O [Disperse blue 3, 1-(2-Hydroxyethyl)amino-4-methylaminoanthraquinone]	–	6.4
O=C(Nc1ccc(Cl)c2c1C(=O)c1ccccc1C2=O)c1ccccc1 [1-Benzamido-4-chloroanthraquinone, N-(4-Chloro-9,10-dihydro-9,10-dioxo-1-anthracenyl)-benzamide]	–	8.6
Cc1cc(O)c2c(c1)C(=O)c1cccc(O)c1C2=O [Chrysophanic acid, 1,8-Dihydroxy-3-methylanthraquinone]	–	27.9
COc1cc(NS(=O)(=O)c2ccc(C)cc2)c2c(c1N)C(=O)c1ccccc1C2=O [N-(4-Amino-9,10-dihydro-3-methoxy-9,10-dioxo-1-anthracenyl)-4-methylbenzenesulfonamide]	–	4.3
O=C1c2ccc(O)cc2C(=O)c2c1cc(S(=O)(=O)O)c(O)c2O [Alizarin rubinol, 9,10-Dihydro-3,4,6-trihydroxy-9,10-dioxo-2-anthracenesulfonic acid]	–	0
CC(=O)OC1C=CCC2C(=O)c3cccc(O)c3C(=O)C12 (racemic) [(+,-)-1-Acetoxy-8-hydroxy-1,4,4a,9a-tetrahydroanthraquinone]	28.1	–
CC(C)(C)c1ccc2c(c1)C(=O)c1ccccc1C2=O [2-tert-butylanthraquinone]	–	5.2
O=C1c2c(Br)cc(Br)c(O)c2C(=O)c2c(O)c(Br)cc(Br)c21 [2,4,5,7-Tetrabromochrysazin, 2,4,5,7-Tetrabromo-1,8-dihydroxy-9,10-anthracenedione]	40.6	–
CCC(=O)Nc1ccc2c(c1)C(=O)c1ccccc1C2=O [2-Propionamidoanthraquinone]	–	10.4
Nc1ccc2c(c1)C(=O)c1ccccc1C2=O [2-Aminoanthraquinone]	30.4	–
O=C1c2ccccc2C(=O)c2c1cccc2N(NS(=O)(=O)O)S(=O)(=O)O [1-(9,10-Dihydro-9,10-dioxo-1-anthracenyl)-1,2-hydrazinedisulfonic acid, di Na salt]	10	–

Same assay, conditions: Table III, Example 3

Compound	% inhibition of sulfide formation [%]
CC(C)NC(=N)NC(=N)Nc1cccc2c1C(=O)c1ccccc1C2=O [N-[1-(9,10-dihydro-9,10-dioxo)anthracenyl]-N'-(1-methylethyl)imidodicarbonimidic diamide hydrochloride]	83
